In paper PMC3691140, “FGT-1 Is a Mammalian GLUT2-Like Facilitative Glucose Transporter in Caenorhabditis elegans Whose Malfunction Induces Fat Accumulation in Intestinal Cells” (PLoS ONE, 2013):

Each compound was assayed against T1, FGT-1 (Caenorhabditis elegans, UniProt O44827) (assay: inhibition of 3H-2-DG uptake in Xenopus oocytes). Conditions: read-out: % inhibition at 30 mM.
T1 construct: gene fdgt-1; full-length fgt-1a cDNA in pSP64T, untagged, cRNA-injected Xenopus laevis oocytes
T1 sequence (O44827 1-492 isoform O44827-2): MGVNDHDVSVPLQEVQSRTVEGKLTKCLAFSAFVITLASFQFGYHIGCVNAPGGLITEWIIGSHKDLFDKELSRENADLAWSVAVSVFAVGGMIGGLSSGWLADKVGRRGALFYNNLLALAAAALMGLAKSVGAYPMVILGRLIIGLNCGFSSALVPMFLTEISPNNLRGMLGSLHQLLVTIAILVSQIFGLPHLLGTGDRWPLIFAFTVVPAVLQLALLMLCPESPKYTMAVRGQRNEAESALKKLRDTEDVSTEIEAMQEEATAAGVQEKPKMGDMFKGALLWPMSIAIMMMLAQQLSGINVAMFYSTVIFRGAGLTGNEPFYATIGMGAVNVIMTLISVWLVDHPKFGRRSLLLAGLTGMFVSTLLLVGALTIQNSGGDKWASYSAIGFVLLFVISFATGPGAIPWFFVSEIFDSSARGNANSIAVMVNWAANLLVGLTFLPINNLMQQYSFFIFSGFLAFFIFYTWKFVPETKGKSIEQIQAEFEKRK
Format: cell-based

SMILES | inhibition at 30000 µM [%]
CO[C@H]1[C@H](O)[C@@H](CO)OC(O)[C@@H]1O (stereo partly drawn) [3-O-methylglucose] | 77
OCC1(O)OC[C@@H](O)[C@@H](O)[C@@H]1O (stereo partly drawn) [D-fructose] | 42
OC[C@H]1OC(O)[C@H](O)[C@@H](O)[C@H]1O (stereo partly drawn) [D-galactose] | 33
OC[C@H]1OC(O)[C@H](O)[C@@H](O)[C@@H]1O (stereo partly drawn) [D-glucose] | 79
OC[C@H]1OC(O)[C@@H](O)[C@@H](O)[C@@H]1O (stereo partly drawn) [D-mannose] | 79

These compounds were tested against T2, hGLUT1 (Homo sapiens, UniProt P11166) (assay: 3H-2-DG uptake in cRNA-injected Xenopus oocytes). Conditions: 10 mM 2-DG, 15 min, pH 7.6; positive control; labelled compound as tracer.
T2 construct: gene SLC2A1; pSP64T-hGLUT1, cRNA-injected Xenopus laevis oocytes
T2 sequence (P11166 1-492): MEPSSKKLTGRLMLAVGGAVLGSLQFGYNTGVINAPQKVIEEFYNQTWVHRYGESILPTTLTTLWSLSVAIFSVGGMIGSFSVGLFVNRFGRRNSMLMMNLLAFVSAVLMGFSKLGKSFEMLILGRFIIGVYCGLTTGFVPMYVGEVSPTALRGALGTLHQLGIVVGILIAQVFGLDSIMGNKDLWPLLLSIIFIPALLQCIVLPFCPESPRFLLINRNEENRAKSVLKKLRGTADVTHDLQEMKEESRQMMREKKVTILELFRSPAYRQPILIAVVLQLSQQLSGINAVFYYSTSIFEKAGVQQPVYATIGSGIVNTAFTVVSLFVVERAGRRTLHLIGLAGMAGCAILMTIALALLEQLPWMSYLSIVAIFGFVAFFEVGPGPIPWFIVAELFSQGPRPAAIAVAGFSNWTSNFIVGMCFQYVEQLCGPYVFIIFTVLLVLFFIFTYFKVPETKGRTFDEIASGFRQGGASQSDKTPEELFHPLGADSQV
Format: cell-based

SMILES | 3H-2-DG uptake in cRNA-injected Xenopus oocytes
OC[C@H]1OC(O)C[C@@H](O)[C@@H]1O (stereo partly drawn) [2-deoxy-D-glucose] | The hGLUT1 cRNA-injected oocytes were used as a positive control
